Experimental findings from patent US8088815B2, “Spiroindolinone pyrrolidines” (Hoffman-La Roche Inc., priority 2009, dated 2012) are described below.

Chain of interaction between p53 and MDM2 proteins (Q00987 whole entry): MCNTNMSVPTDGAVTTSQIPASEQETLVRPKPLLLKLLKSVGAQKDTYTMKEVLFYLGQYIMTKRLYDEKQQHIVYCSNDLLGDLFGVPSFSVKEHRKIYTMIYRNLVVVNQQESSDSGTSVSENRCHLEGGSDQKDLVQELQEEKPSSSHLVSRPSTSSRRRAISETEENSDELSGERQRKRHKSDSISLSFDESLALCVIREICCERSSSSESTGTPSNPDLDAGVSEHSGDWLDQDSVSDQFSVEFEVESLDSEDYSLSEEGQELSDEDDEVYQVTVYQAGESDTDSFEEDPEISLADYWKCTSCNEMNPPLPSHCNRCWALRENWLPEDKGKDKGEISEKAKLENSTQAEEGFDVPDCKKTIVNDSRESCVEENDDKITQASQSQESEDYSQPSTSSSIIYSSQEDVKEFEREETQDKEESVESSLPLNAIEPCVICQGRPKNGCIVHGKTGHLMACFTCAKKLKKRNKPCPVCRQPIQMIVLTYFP

The assay has as its target interaction between p53 and MDM2 proteins (Homo sapiens, UniProt Q00987). The assay can be described thus: HTRF assay of inhibition of the p53-MDM2 interaction (GST-MDM2 / biotinylated p53 peptide). It counts as binding. The conditions noted are these: recombinant GST-tagged MDM2 and biotinylated p53 peptide, bsa:0.02%. (TR-FRET usually uses a lanthanide donor and a delayed reading to cut background.)
By IC50 is commonly meant the point on the concentration scale where inhibition reaches its midpoint. In the case of `Cn1c(NC(=O)[C@@H]2N[C@@H](CC(C)(C)C)[C@@]3(C(=O)Nc4cc(Cl)ccc43)[C@H]2c2cccc(Cl)c2F)ccc1C(=O)OC(C)(C)C` (racemic) [Example 194, rac-5-{[(2′S,3′R,4′S,5′R)-6-chloro-4′-(3-chloro-2-fluoro-phenyl)-2′-(2,2-dimethyl-propyl)-2-oxo-1,2-dihydro-spiro[indole-3,3′-pyrrolidine]-5′-carbonyl]amino}-1-methyl-1H-pyrrole-2-carboxylic acid tert-butyl ester], the IC50 was found to be 55 nM.

`CCOC(=O)Cc1ccc(NC(=O)[C@@H]2N[C@@H](CC(C)(C)C)[C@@]3(C(=O)Nc4cc(Cl)ccc43)[C@H]2c2cccc(Cl)c2F)cc1` (racemic) [Example 219, rac-(4-{[(2′S,3′R,4′S,5′R)-6-chloro-4′-(3-chloro-2-fluoro-phenyl)-2′-(2,2-dimethyl-propyl)-2-oxo-1,2-dihydro-spiro[indole-3,3′-pyrrolidine]-5′-carbonyl]amino}-phenyl)-acetic acid ethyl ester]: the IC50 turned out to be 13 nM. The result for `CC(C)(C)C[C@@H]1N[C@@H](C(=O)Nc2nc(C(=O)O)cs2)[C@H](c2cccc(Cl)c2F)[C@]12C(=O)Nc1cc(Cl)ccc12` (racemic) [Example 197, rac-2-{[(2′S,3′R,4′S,5′R)-6-chloro-4′-(3-chloro-2-fluoro-phenyl)-2′-(2,2-dimethyl-propyl)-2-oxo-1,2-dihydro-spiro[indole-3,3′-pyrrolidine]-5′-carbonyl]amino}-thiazole-4-carboxylic acid] reads 51 nM; that for `COc1cc(C(N)=O)ccc1NC(=O)[C@@H]1N[C@@H](CC(C)(C)C)[C@@]2(C(=O)Nc3cc(Cl)ccc32)[C@H]1c1cccc(Br)c1F` (racemic) [Example 117, rac-(2′S,3′R,4′S,5′R)-4′-(3-bromo-2-fluoro-phenyl)-6-chloro-2′-(2,2-dimethyl-propyl)-2-oxo-1,2-dihydro-spiro[indole-3,3′-pyrrolidine]-5′-carboxylic acid (4-carbamoyl-2-methoxy-phenyl)-amide], 7 nM.

Take `CC(C)(C)C[C@@H]1N[C@@H](C(=O)Nc2ccc(C#N)cc2)[C@H](c2cccc(Cl)c2F)[C@]12C(=O)Nc1c2ccc(Cl)c1F` (racemic) [Example 175, rac-(2′S,3′R,4′S,5′R)-6-chloro-4′-(3-chloro-2-fluoro-phenyl)-2′-(2,2-dimethyl-propyl)-7-fluoro-2-oxo-1,2-dihydro-spiro[indole-3,3′-pyrrolidine]-5′-carboxylic acid (4-cyano-phenyl)-amide]: the half-maximal inhibitory concentration (IC50) was 40 nM. To `CC(C)(C)C[C@@H]1N[C@@H](C(=O)Nc2ccc(C#N)cc2)[C@H](c2cccc(Cl)c2F)[C@]12C(=O)Nc1cc(Cl)cc(F)c12` (racemic) [Example 72, rac-(2′S,3′R,4′S,5′R)-6-chloro-4′-(3-chloro-2-fluoro-phenyl)-2′-(2,2-dimethyl-propyl)-4-fluoro-2-oxo-1,2-dihydro-spiro[indole-3,3′-pyrrolidine]-5′-carboxylic acid (4-cyano-phenyl)-amide] belongs 22 nM; to `CC(C)(C)C[C@@H]1N[C@@H](C(=O)Nc2ccc(OCCO)cc2)[C@H](c2cccc(Cl)c2F)[C@]12C(=O)Nc1cc(Cl)ccc12` [Example 20, chiral (2′S,3′R,4′S,5′R)-6-chloro-4′-(3-chloro-2-fluoro-phenyl)-2′-(2,2-dimethyl-propyl)-2-oxo-1,2-dihydro-spiro[indole-3,3′-pyrrolidine]-5′-carboxylic acid [4-(2-hydroxy-ethoxy)-phenyl]-amide], 7 nM; to `CC(=O)c1ccc(NC(=O)[C@@H]2N[C@@H](CC(C)(C)C)[C@@]3(C(=O)Nc4cc(Cl)ccc43)[C@H]2c2cccc(Cl)c2F)cc1` [Example 12, chiral (2′S,3′R,4′S,5′R)-6-chloro-4′-(3-chloro-2-fluoro-phenyl)-2′-(2,2-dimethyl-propyl)-2-oxo-1,2-dihydro-spiro[indole-3,3′-pyrrolidine]-5′-carboxylic acid (4-acetyl-phenyl)-amide], 6 nM. As for `Cc1ccc(NC(=O)[C@@H]2N[C@@H](CC(C)(C)C)[C@@]3(C(=O)Nc4cc(Cl)ccc43)[C@H]2c2cccc(Cl)c2F)cc1` (racemic) [Example 36, rac-(2′S,3′R,4′S,5′R)-6-chloro-4′-(3-chloro-2-fluoro-phenyl)-2′-(2,2-dimethyl-propyl)-2-oxo-1,2-dihydro-spiro[indole-3,3′-pyrrolidine]-5′-carboxylic acid p-tolylamide], the IC50 worked out at 18 nM. To `COc1cc(C(=O)O)ccc1NC(=O)[C@@H]1N[C@@H](CC(C)(C)C)[C@@]2(C(=O)Nc3cc(Cl)ccc32)[C@H]1c1cccc(Cl)c1` (racemic) [Example 108, rac-4-{[(2′S,3′R,4′R,5′R)-6-chloro-4′-(3-chloro-phenyl)-2′-(2,2-dimethyl-propyl)-2-oxo-1,2-dihydro-spiro[indole-3,3′-pyrrolidine]-5′-carbonyl]amino}-3-methoxy-benzoic acid] belongs 9 nM; to `CC(C)(C)C[C@@H]1N[C@@H](C(=O)Nc2ccc(C(N)=O)cc2)[C@H](c2cc(F)cc(Cl)c2)[C@]12C(=O)Nc1cc(Cl)ccc12` (racemic) [Example 89], 13 nM. The result for `CC(C)(C)C[C@@H]1N[C@@H](C(=O)Nc2ccn(CCO)n2)[C@H](c2cccc(Cl)c2F)[C@]12C(=O)Nc1cc(Cl)ccc12` (racemic) [Example 44, rac-(2′S,3′R,4′S,5′R)-6-chloro-4′-(3-chloro-2-fluoro-phenyl)-2′-(2,2-dimethyl-propyl)-2-oxo-1,2-dihydro-spiro[indole-3,3′-pyrrolidine]-5′-carboxylic acid [1-(2-hydroxy-ethyl)-1H-pyrazol-3-yl]-amide] reads 10 nM. The result for `COc1cc(NC(=O)[C@@H]2N[C@@H](CC(C)(C)C)[C@@]3(C(=O)Nc4cc(Cl)ccc43)[C@H]2c2cccc(Cl)c2F)ccc1C(N)=O` (racemic) [Example 22, rac-(2′S,3′R,4′S,5′R)-6-chloro-4′-(3-chloro-2-fluoro-phenyl)-2′-(2,2-dimethyl-propyl)-2-oxo-1,2-dihydro-spiro[indole-3,3′-pyrrolidine]-5′-carboxylic acid (4-carbamoyl-3-methoxy-phenyl)-amide] reads 11 nM. As for `CC(C)(C)C[C@@H]1N[C@@H](C(=O)Nc2ccc(C#N)cc2)[C@H](c2cccc(Cl)c2F)[C@]12C(=O)Nc1cc(Cl)ccc12` (racemic) [Example 7, rac-(2′S,3′R,4′S,5′R)-6-chloro-4′-(3-chloro-2-fluoro-phenyl)-2′-(2,2-dimethyl-propyl)-2-oxo-1,2-dihydro-spiro[indole-3,3′-pyrrolidine]-5′-carboxylic acid (4-cyano-phenyl)-amide], the half-inhibitory concentration (IC50) came out at 14 nM.

Turning to `COC(=O)c1ccc(NC(=O)[C@@H]2N[C@@H](CC(C)(C)C)[C@@]3(C(=O)Nc4cc(Cl)ccc43)[C@H]2c2cc(F)cc(Cl)c2)c(OC)c1` (racemic) [Example 124, rac-4-{[(2′S,3′R,4′R,5′R)-6-chloro-4′-(3-chloro-5-fluoro-phenyl)-2′-(2,2-dimethyl-propyl)-2-oxo-1,2-dihydro-spiro[indole-3,3′-pyrrolidine]-5′-carbonyl]-amino}-3-methoxy-benzoic acid methyl ester], the IC50 is 15 nM.
